In publication PMC9221290, “Alkaloids of Dicranostigma franchetianum (Papaveraceae) and Berberine Derivatives as a New Class of Antimycobacterial Agents” (Biomolecules, 2022):
Where two headings read alike, the source gives them in different places.

Key:
[1] = test system: Mtb H37Ra ITM-M006710 (ATCC 9431); assay: Antimycobacterial microdilution broth assay (resazurin), Mtb H37Ra; type: cell-based, Mycobacterium tuberculosis; conditions: Mycobacterium tuberculosis
[2] = test system: Mycolicibacterium aurum DSM 43999 (ATCC 23366); assay: Antimycobacterial microdilution broth assay (resazurin), M. aurum; type: cell-based; conditions: Mycolicibacterium aurum, 72 h, read-out: MIC M. aurum, microdilution broth, resazurin, 72 h
[3] = test system: Mycobacterium avium DSM 44156 (ATCC 25291); assay: Antimycobacterial microdilution broth assay (resazurin), M. avium; type: cell-based; conditions: Mycobacterium avium, 96 h, read-out: MIC M. avium, microdilution broth, resazurin, 96 h
[4] = test system: Mycobacterium kansasii DSM 44162 (ATCC 12478); assay: Antimycobacterial microdilution broth assay (resazurin), M. kansasii; type: cell-based; conditions: Mycobacterium kansasii, 96 h, read-out: MIC M. kansasii, microdilution broth, resazurin, 96 h
[5] = test system: Mycolicibacterium smegmatis DSM 43465 (ATCC 607); assay: Antimycobacterial microdilution broth assay (resazurin), M. smegmatis; type: cell-based; conditions: Mycolicibacterium smegmatis, 48 h, read-out: MIC M. smegmatis, microdilution broth, resazurin, 48 h
HepG2 cells [6] = test system: HepG2 cells
HepG2 cells [7] = assay: cells; conditions: Homo sapiens, HepG2, 24 h
in vitro = conditions: human, % of cell viability compared to control; for viability at 1 µM: HepG2, 1 µM; for viability at 5 µM: HepG2, 5 µM; for viability at 10 µM: HepG2, 10 µM; for viability at 25 µM: HepG2, 25 µM; for viability at 50 µM: HepG2, 50 µM; for viability at 75 µM: HepG2, 75 µM; for viability at 100 µM: HepG2, 100 µM; for viability at 20 µM: HepG2, 20 µM; for viability at 40 µM: HepG2, 40 µM; for viability at 60 µM: HepG2, 60 µM; for viability at 80 µM: HepG2, 80 µM; for viability at 0.1 µM: HepG2, 0.1 µM
[8] = 120 h, microdilution broth, resazurin, 120 h, read-out: MIC Mtb H37Ra
[9] = calculated from MIC (µg/mL) and MW, read-out: MIC Mtb H37Ra
[10] = read-out: HepG2 IC50, 1. measurement, MTT, 24 h, single measurement 1
[11] = read-out: HepG2 IC50, 2. measurement, MTT, 24 h, single measurement 2
[12] = read-out: HepG2 IC50, 3. measurement, MTT, 24 h, single measurement 3
[13] = read-out: HepG2 IC50, MTT, 24 h incubation

SMILES	MIC [1, 8] [µg/mL]	MIC [1, 9] [µM]	MIC [2] [µg/mL]	MIC [3] [µg/mL]	MIC [4] [µg/mL]	MIC [5] [µg/mL]	SI (selectivity index) (HepG2 cells [6])	IC50 (HepG2 cells [7]; [10]) [µM]	IC50 (HepG2 cells [7]; [11]) [µM]	IC50 (HepG2 cells [7]; [12]) [µM]	IC50 (HepG2 cells [7]; [13]) [µM]	viability at 1 µM (in vitro; 1. measurement) [%]	viability at 5 µM (in vitro; 1. measurement) [%]	viability at 10 µM (in vitro; 1. measurement) [%]	viability at 100 µM (in vitro; 1. measurement) [%]	viability at 1 µM (in vitro; 2. measurement) [%]	viability at 5 µM (in vitro; 2. measurement) [%]	viability at 10 µM (in vitro; 2. measurement) [%]	viability at 25 µM (in vitro; 2. measurement) [%]	viability at 50 µM (in vitro; 2. measurement) [%]	other results
COc1ccc2cc3[n+](cc2c1OCc1cccc(Br)c1)CCc1cc2c(cc1-3)OCO2 [16f, 9-O-(3-brombenzyl)berberine chloride]	3.12	5.93	1.56	3.12	3.12	0.78	2.34	14.1	17	10.5	13.9 ± 3.25	95.5	69.4	54.8	12.3	104	76.8	56.1	52.7	32.8	viability at 25 µM (in vitro; 1. measurement): 48.3%; viability at 50 µM (in vitro; 1. measurement): 39.3%; viability at 75 µM (in vitro; 1. measurement): 28%; viability at 75 µM (in vitro; 2. measurement): 2.26%; viability at 100 µM (in vitro; 2. measurement): 0.77%; viability at 1 µM (in vitro; 3. measurement): 90.5%; viability at 5 µM (in vitro; 3. measurement): 62.6%; viability at 10 µM (in vitro; 3. measurement): 49.4%; viability at 25 µM (in vitro; 3. measurement): 43.7%; viability at 50 µM (in vitro; 3. measurement): 23.7%; viability at 75 µM (in vitro; 3. measurement): 2.27%; viability at 100 µM (in vitro; 3. measurement): 1.1%
COc1ccc2cc3[n+](cc2c1OCc1ccccc1)CCc1cc2c(cc1-3)OCO2 [16a, 9-O-benzylberberine chloride]	6.25	13.9	3.12	3.12	6.25	0.78	1.76	29.1	20.8	23.5	24.5 ± 4.25	93.4	81.9	68.9	8.76	87.9	73	59.2	48.9	42.1	viability at 20 µM (in vitro; 1. measurement): 59.4%; viability at 40 µM (in vitro; 1. measurement): 56.2%; viability at 60 µM (in vitro; 1. measurement): 41.5%; viability at 80 µM (in vitro; 1. measurement): 20.2%; viability at 75 µM (in vitro; 2. measurement): 31.1%; viability at 100 µM (in vitro; 2. measurement): 16.6%; viability at 1 µM (in vitro; 3. measurement): 96.4%; viability at 5 µM (in vitro; 3. measurement): 76.4%; viability at 10 µM (in vitro; 3. measurement): 60.7%; viability at 25 µM (in vitro; 3. measurement): 50.3%; viability at 50 µM (in vitro; 3. measurement): 44.9%; viability at 75 µM (in vitro; 3. measurement): 29.6%; viability at 100 µM (in vitro; 3. measurement): 15.3%
COc1ccc2cc3[n+](cc2c1OCc1ccc(Cl)c(Cl)c1)CCc1cc2c(cc1-3)OCO2 [16k, 9-O-(3,4-dichlorbenzyl)berberine chloride]	1.56	2.78	1.56	1.56	6.25	1.56	4.55	13.3	14.8	9.9	12.7 ± 2.51	97.6	66.5	50.4	2.33	97.8	79.2	46.7	35.5	35	viability at 25 µM (in vitro; 1. measurement): 43.4%; viability at 50 µM (in vitro; 1. measurement): 35%; viability at 75 µM (in vitro; 1. measurement): 13.2%; viability at 75 µM (in vitro; 2. measurement): 28.2%; viability at 100 µM (in vitro; 2. measurement): 4.02%; viability at 1 µM (in vitro; 3. measurement): 85.7%; viability at 5 µM (in vitro; 3. measurement): 67%; viability at 10 µM (in vitro; 3. measurement): 46.9%; viability at 25 µM (in vitro; 3. measurement): 43.6%; viability at 50 µM (in vitro; 3. measurement): 11.7%; viability at 75 µM (in vitro; 3. measurement): 0.77%; viability at 100 µM (in vitro; 3. measurement): 0.81%
COc1ccc2cc3[n+](cc2c1OCc1cccc(C)c1)CCc1cc2c(cc1-3)OCO2 [16c, 9-O-(3-methylbenzyl)berberine chloride]	6.25	13.5	3.12	6.25	6.25	1.56	3.49	55.6	43.4	42.3	47.1 ± 7.38	87.2	88.3	74	35.1	88.3	78.7	68.3	52.9	47.9	viability at 20 µM (in vitro; 1. measurement): 58.4%; viability at 40 µM (in vitro; 1. measurement): 54.5%; viability at 60 µM (in vitro; 1. measurement): 53.3%; viability at 80 µM (in vitro; 1. measurement): 49.5%; viability at 75 µM (in vitro; 2. measurement): 45.7%; viability at 100 µM (in vitro; 2. measurement): 39%; viability at 0.1 µM (in vitro; 3. measurement): 102%; viability at 1 µM (in vitro; 3. measurement): 99.8%; viability at 5 µM (in vitro; 3. measurement): 78.9%; viability at 10 µM (in vitro; 3. measurement): 64.9%; viability at 25 µM (in vitro; 3. measurement): 48.6%; viability at 50 µM (in vitro; 3. measurement): 47.3%; viability at 75 µM (in vitro; 3. measurement): 46.1%; viability at 100 µM (in vitro; 3. measurement): 42.5%
COc1ccc2cc3[n+](cc2c1OCc1ccc(C)cc1)CCc1cc2c(cc1-3)OCO2 [16d, 9-O-(4-methylbenzyl)berberine chloride]			6.25	1.98	3.91	1.56	2.54	19.3	16	12.3	15.9 ± 3.48	96.1	70	55.6	7.68	92.6	64.6	48	45	41.4	MIC ([1]; 120 h, read-out: MIC Mtb H37Ra, microdilution broth, resazurin, 120 h): 3.91 µg/mL; MIC ([1]; read-out: MIC Mtb H37Ra (µM), calculated from MIC (µg/mL) and MW): 8.46 µM; viability at 25 µM (in vitro; 1. measurement): 48%; viability at 50 µM (in vitro; 1. measurement): 43.7%; viability at 75 µM (in vitro; 1. measurement): 32.6%; viability at 0.1 µM (in vitro; 2. measurement): 93.3%; viability at 75 µM (in vitro; 2. measurement): 34%; viability at 100 µM (in vitro; 2. measurement): 15.7%; viability at 0.1 µM (in vitro; 3. measurement): 79.8%; viability at 1 µM (in vitro; 3. measurement): 76.5%; viability at 5 µM (in vitro; 3. measurement): 68.2%; viability at 10 µM (in vitro; 3. measurement): 52%; viability at 25 µM (in vitro; 3. measurement): 47.6%; viability at 50 µM (in vitro; 3. measurement): 45.2%; viability at 75 µM (in vitro; 3. measurement): 18.3%; viability at 100 µM (in vitro; 3. measurement): 11.4%
COc1ccc2cc3[n+](cc2c1OCc1cccc(Cl)c1)CCc1cc2c(cc1-3)OCO2 [16h, 9-O-(3-chlorbenzyl)berberine chloride]	3.12	5.93	1.56	1.56	3.12	0.78	1.59	8.53	11.9	7.91	9.44 ± 2.13	65.4	66.5	51.7	15.7	94.6	67.4	54.2	44.6	12.8	viability at 25 µM (in vitro; 1. measurement): 44.2%; viability at 50 µM (in vitro; 1. measurement): 36.5%; viability at 75 µM (in vitro; 1. measurement): 23.8%; viability at 75 µM (in vitro; 2. measurement): 1.14%; viability at 100 µM (in vitro; 2. measurement): 0.68%; viability at 1 µM (in vitro; 3. measurement): 87.2%; viability at 5 µM (in vitro; 3. measurement): 54.4%; viability at 10 µM (in vitro; 3. measurement): 47.8%; viability at 25 µM (in vitro; 3. measurement): 36%; viability at 50 µM (in vitro; 3. measurement): 15.6%; viability at 75 µM (in vitro; 3. measurement): 2.92%; viability at 100 µM (in vitro; 3. measurement): 0.98%
c1cc2c(c3c1C[C@H]1c4cc5c(cc4CCN1C3)OCO5)OCO2 [compound 4, stylopine]	≥ 125	≥ 387	≥ 125	≥ 125	≥ 125	≥ 125															
